In patent US20100173833A1, “METHODS AND COMPOSITION FOR USE OF CYCLIC ANALOGUES OF HISTATIN” (priority 2007, published 2010):
In brackets after ≈: the same amount, converted by molar mass. Bridge positions count the residues as written; N and C are the ends. Peptide text beside a SMILES is read from it.

Tests used:
[1] = system: Bacillus subtilis; experiment: MIC, inhibition of cell growth; assay type: cell-based; conditions: lab strain; 1 hour 37° C. in 10 mM NaCl/50 mM MOPS, pH 7.2, then YPD 24 hours 37° C.
[2] = system: adult rats; experiment: Tolerability in adult rats, intra-venous injection; assay type: in vivo
Experimental: (§1) In addition, mice were able to withstand a concentration of 15 mg/kg of DB2121 when injected via an intra-peritoneal route. When injected into adult rats, a concentration of up to and including 1.5 mg/kg caused no harm when injected intra-venously.

[3] = system: Candida albicans (isolate #5); conditions: clinical isolate #5; 1 hour 37° C. in 10 mM NaCl/50 mM MOPS, pH 7.2, then YPD 24 hours 30° C.
[4] = system: Candida albicans (isolate #77); conditions: clinical isolate #77; 1 hour 37° C. in 10 mM NaCl/50 mM MOPS, pH 7.2, then YPD 24 hours 30° C.
[5] = system: Candida albicans (isolate #98); conditions: clinical isolate #98; 1 hour 37° C. in 10 mM NaCl/50 mM MOPS, pH 7.2, then YPD 24 hours 30° C.
[6] = system: S. aurens (ATCC 43300); conditions: lab strain ATCC 43300; 1 hour 37° C. in 10 mM NaCl/50 mM MOPS, pH 7.2, then YPD 24 hours 37° C.
[7] = system: MRSAS. aureus (STRAIN 2); conditions: clinical MRSA strain 2; 1 hour 37° C. in 10 mM NaCl/50 mM MOPS, pH 7.2, then YPD 24 hours 37° C.
[8] = system: phosphorylated ERK 1, 2; conditions: 50 μM, primary human foreskin epithelial cells
Experimental: Toxicological studies of DB2121 in human cells were also undertaken. Primary human neonatal foreskin epithelial cells were used to examine DB2121 toxicity, using a method as described in Min et al. 2004. […] At 18 and 36 hours following addition of compound, the foreskin epithelial cells were imaged using phase contract microscopy at 20× magnification. (E) Immediately following the image analysis, proteins were extracted, separated on SDS-PAGE gels, Western blotted, and probed for Phosphorylated and non-phosphorylated ERK 1, 2 to monitor the proliferation of the foreskin keratinocytes. The experiments was repeated three times.
The primary cells were lysed and monitored for a marker of proliferation namely phosphorylated ERK 1, 2.

[9] = 1 uM, 37° C., in vitro
Experimental: The cyclic analogue was incubated in human saliva at a concentration of 1 uM and at a temperature of 37° C. in vitro. At various time points from 0 to 72 hours, 1.0 ul aliquots were taken and injected directly into a Micromass Quattro Micro mass spectrometer. Data was collected for a total of 3 minutes. The data was then processed using Mass Lynx 4.0 Analysis software.

[10] = system: Candida dubliniensis (isolate #10); conditions: clinical isolate #10; 1 hour 37° C. in 10 mM NaCl/50 mM MOPS, pH 7.2, then YPD 24 hours 30° C.
[11] = system: Candida albicans (isolate #99); conditions: clinical isolate #99; 1 hour 37° C. in 10 mM NaCl/50 mM MOPS, pH 7.2, then YPD 24 hours 30° C.
[12] = system: Candida tropicalis (isolate #93); conditions: clinical isolate #93; 1 hour 37° C. in 10 mM NaCl/50 mM MOPS, pH 7.2, then YPD 24 hours 30° C.
[13] = system: S. haemolyticus (ATCC 29970); conditions: lab strain ATCC 29970; 1 hour 37° C. in 10 mM NaCl/50 mM MOPS, pH 7.2, then YPD 24 hours 37° C.
[14] = system: MRSAS. aureus (STRAIN 1); conditions: clinical MRSA strain 1; 1 hour 37° C. in 10 mM NaCl/50 mM MOPS, pH 7.2, then YPD 24 hours 37° C.
[15] = system: Candida albicans (isolate #3); conditions: clinical isolate #3; 1 hour 37° C. in 10 mM NaCl/50 mM MOPS, pH 7.2, then YPD 24 hours 30° C.
[16] = system: Candida albicans (isolate #AST97); conditions: clinical isolate AST97 (blood culture); 1 hour 37° C. in 10 mM NaCl/50 mM MOPS, pH 7.2, then YPD 24 hours 30° C.
[17] = system: Candida albicans (isolate #11); conditions: clinical isolate #11; 1 hour 37° C. in 10 mM NaCl/50 mM MOPS, pH 7.2, then YPD 24 hours 30° C.
[18] = system: primary human foreskin epithelial cell culture; conditions: various concentrations, 0, 36 and 72 hours (FIG. 3)
Experimental: To determine range of non-toxic concentrations of DB2121, various concentration s of DB2121, 50 μM ketoconazole or DMSO as a control were separately added to primary human foreskin epithelial cell culture. At 0, 36 and 72 hours after addition, the epithelial cells were titriated off the culture plate and the viable cell number was determined. The experiment was performed in triplicate. At 72 hours, the foreskin epithelial cells exposed to the various compounds were imaged at 20× magnification using phase contrast microscopy. For cell counting, the epithelial cells were stained with trypan exclusion stain to monitor cell viability.

[19] = system: Candida albicans (isolate #4); conditions: clinical isolate #4; 1 hour 37° C. in 10 mM NaCl/50 mM MOPS, pH 7.2, then YPD 24 hours 30° C.
[20] = system: S. aureus (ATCC 29213); conditions: lab strain ATCC 29213; 1 hour 37° C. in 10 mM NaCl/50 mM MOPS, pH 7.2, then YPD 24 hours 37° C.
[21] = system: Primary human neonatal foreskin epithelial cells; conditions: 50 μM working (antimicrobial) concentration
Experimental: At 18 and 36 hours following addition of compound, the foreskin epithelial cells were imaged using phase contract microscopy at 20× magnification. […] The experiments was repeated three times.

[22] = system: Candida albicans (SC5314); conditions: lab strain; 1 hour 37° C. in 10 mM NaCl/50 mM MOPS, pH 7.2, then YPD broth 24 hours 30° C.
[23] = system: Candida albicans; conditions: concentration of cyclic Histatin analogue, alone or in combination; 1 hour 37° C. in 20 mM Tris-Cl, pH 7.2, 20 mM NaCl, then YPD 24 hours
[24] = system: mice; experiment: Tolerability in mice, intra-peritoneal injection; assay type: in vivo
Experimental: as §1

[25] = system: Candida albicans (isolate #28); conditions: clinical isolate #28; 1 hour 37° C. in 10 mM NaCl/50 mM MOPS, pH 7.2, then YPD 24 hours 30° C.
[26] = system: S. aurens (ATCC 25923); conditions: lab strain ATCC 25923; 1 hour 37° C. in 10 mM NaCl/50 mM MOPS, pH 7.2, then YPD 24 hours 37° C.

## N=C(N)NCCC[C@H](NC(=O)[C@H](Cc1c[nH]cn1)NC(=O)[C@@H]1CSSC[C@H](NC(=O)[C@H](Cc2c[nH]cn2)NC(=O)[C@H](Cc2c[nH]cn2)NC(=O)[C@@H](N)CCCNC(=N)N)C(=O)N[C@@H](Cc2ccc(O)cc2)C(=O)N[C@@H](CCCCN)C(=O)N[C@@H](CCCNC(=N)N)C(=O)N[C@@H](CCCCN)C(=O)N[C@@H](Cc2ccccc2)C(=O)N[C@@H](Cc2c[nH]cn2)C(=O)N[C@@H](CCC(=O)O)C(=O)N[C@@H](CCCCN)C(=O)N[C@@H](Cc2c[nH]cn2)C(=O)N[C@@H](Cc2c[nH]cn2)C(=O)N1)C(=O)NCC(=O)N[C@@H](Cc1ccc(O)cc1)C(=O)O [DB2121] (H-RHHCYKRKFHEKHHCHRGY-OH; disulfide 4-15)
[1]
  MIC: 23.9 µM (≈ 61.1 µg/mL)
[2]
  concentration that caused no harm: ≤ 1.5 mg/kg
[3]
  MIC: 4.5 µM (≈ 11.5 µg/mL)
[4]
  MIC: 4.5 µM (≈ 11.5 µg/mL)
[5]
  MIC: 4.5 µM (≈ 11.5 µg/mL)
[6]
  MIC: 5.5 µM (≈ 14.1 µg/mL)
[7]
  MIC: 11.5 µM (≈ 29.4 µg/mL)
[8]
  ERK 1, 2 activation compared to control: not suppressed
[9]
  stable in human saliva: at least 72 hours
[10]
  MIC: 4.5 µM (≈ 11.5 µg/mL)
[11]
  MIC: 4.5 µM (≈ 11.5 µg/mL)
[12]
  MIC: 4.5 µM (≈ 11.5 µg/mL)
[13]
  MIC: 4.5 µM (≈ 11.5 µg/mL)
[14]
  MIC: 11.5 µM (≈ 29.4 µg/mL)
[15]
  MIC: 8.0 µM (≈ 20.5 µg/mL)
[16]
  MIC: 7.8 µM (≈ 20 µg/mL)
[17]
  MIC: 6.5 µM (≈ 16.6 µg/mL)
[18]
  toxicity in primary cultured cells (viable cell number): minimal toxicity
[19]
  MIC: 4.5 µM (≈ 11.5 µg/mL)
[20]
  MIC: 12.5 µM (≈ 32 µg/mL)
[21]
  toxicity to human primary cells: non-toxic
[22]
  MIC: 4.5 µM (≈ 11.5 µg/mL)
[23]
  MIC (DB2121): 11 µM
[24]
  concentration withstood: 15 mg/kg
[25]
  MIC: 4.5 µM (≈ 11.5 µg/mL)
[26]
  MIC: 4.5 µM (≈ 11.5 µg/mL)
